Experimental data taken from ChEMBL document CHEMBL1201862, “PubChem BioAssay data set” (2004).
The source made the active and inactive calls.

Assays:
[1] = molecular target: Adenosylmethionine-8-amino-7-oxononanoate aminotransferase (Mycobacterium tuberculosis, UniProt P9WQ81); experiment: Mycobacterium tuberculosis BioA enzyme inhibitor Measured in Biochemical System Using Plate Reader - 2163-02_Inhibitor_Dose_CherryPick_Activity.; assay type: functional, Mycobacterium tuberculosis UT205
Interleukin-8 [2] = molecular target: T1, Interleukin-8 (Homo sapiens, UniProt P10145); experiment: Dose Response confirmation of uHTS small molecule hits for cystic fibrosis induced NFkb Inhibitors in a TNFa-induced IL8 counterscreen.; assay type: functional; details: read-out: IC50_Mean
T1 sequence (P10145 whole entry): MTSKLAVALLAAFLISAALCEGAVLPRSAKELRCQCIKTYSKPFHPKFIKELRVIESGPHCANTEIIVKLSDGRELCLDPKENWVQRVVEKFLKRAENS

Interleukin-8 [3] = molecular target: T1, Interleukin-8; experiment: Dose Response confirmation of uHTS small molecule hits for cystic fibrosis induced NFkb Inhibitors in a PAF-induced IL8 counterscreen.; assay type: functional; details: read-out: IC50_Mean
HEK293 = experiment: inhibitors of LMP1-driven NF-kB reporter, dose response, cell-based, HEK293, luciferase, cherry-pick (AID 588343); assay type: functional; details: Homo sapiens
Caspase-3 = molecular target: T2, Caspase-3 (Homo sapiens, UniProt P42574); experiment: SAR Analysis of small molecule inhibitors of Sentrin-specific proteases (SENPs) using a Caspase-3 Selectivity assay. [Related pubchem assays (depositor defined):AID2540, AID2599, AID434973, AID489001]; assay type: functional
T2 sequence (P42574 whole entry): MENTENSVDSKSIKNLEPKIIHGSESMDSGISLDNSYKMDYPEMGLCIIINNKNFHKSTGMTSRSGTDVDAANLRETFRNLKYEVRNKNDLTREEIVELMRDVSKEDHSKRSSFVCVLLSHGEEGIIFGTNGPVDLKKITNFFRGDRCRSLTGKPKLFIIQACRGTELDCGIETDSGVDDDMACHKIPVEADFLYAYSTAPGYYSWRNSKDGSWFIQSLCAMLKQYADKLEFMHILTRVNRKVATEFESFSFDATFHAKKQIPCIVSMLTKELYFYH

[4] = molecular target: T3, Sentrin-specific protease 6 (Homo sapiens, UniProt Q9GZR1); experiment: SAR Analysis of small molecule inhibitors of Sentrin-specific protease 6 (SENP6) using a Luminescent assay. [Related pubchem assays (depositor defined):AID2582, AID2599]; assay type: functional
T3 sequence (Q9GZR1 whole entry): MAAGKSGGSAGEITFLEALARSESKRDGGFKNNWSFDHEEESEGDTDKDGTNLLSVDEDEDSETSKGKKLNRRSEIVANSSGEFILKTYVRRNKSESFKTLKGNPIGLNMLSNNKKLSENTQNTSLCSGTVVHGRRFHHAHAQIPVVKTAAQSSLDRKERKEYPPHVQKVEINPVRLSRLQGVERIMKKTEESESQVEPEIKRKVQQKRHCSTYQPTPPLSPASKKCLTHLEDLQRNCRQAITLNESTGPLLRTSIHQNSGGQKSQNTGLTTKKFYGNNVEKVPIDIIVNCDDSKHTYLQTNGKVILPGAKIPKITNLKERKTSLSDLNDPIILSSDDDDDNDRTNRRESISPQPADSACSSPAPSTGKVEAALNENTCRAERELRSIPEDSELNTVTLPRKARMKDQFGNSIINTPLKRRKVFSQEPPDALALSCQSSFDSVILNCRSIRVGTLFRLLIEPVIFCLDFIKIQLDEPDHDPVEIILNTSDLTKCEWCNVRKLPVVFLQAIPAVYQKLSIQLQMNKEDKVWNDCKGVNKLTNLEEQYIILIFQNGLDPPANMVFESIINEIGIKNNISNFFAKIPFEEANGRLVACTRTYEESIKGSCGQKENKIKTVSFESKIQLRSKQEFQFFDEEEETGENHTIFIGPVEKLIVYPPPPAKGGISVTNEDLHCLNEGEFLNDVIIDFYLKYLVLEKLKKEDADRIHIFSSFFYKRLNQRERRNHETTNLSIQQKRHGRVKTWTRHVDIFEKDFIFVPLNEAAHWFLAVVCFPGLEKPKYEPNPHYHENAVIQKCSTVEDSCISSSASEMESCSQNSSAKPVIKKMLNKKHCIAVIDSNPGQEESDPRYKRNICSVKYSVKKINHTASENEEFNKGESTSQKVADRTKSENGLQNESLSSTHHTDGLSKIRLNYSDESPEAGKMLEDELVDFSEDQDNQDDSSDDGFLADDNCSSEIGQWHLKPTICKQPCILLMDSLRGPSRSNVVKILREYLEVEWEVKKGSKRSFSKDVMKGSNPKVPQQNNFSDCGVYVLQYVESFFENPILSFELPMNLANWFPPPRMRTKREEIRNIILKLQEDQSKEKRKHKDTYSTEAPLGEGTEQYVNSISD

[5] = molecular target: T4, Sentrin-specific protease 8 (Homo sapiens, UniProt Q96LD8); experiment: SENP8 protease inhibitors, SAR follow-up, biochemical, luminescence (AID 504501); assay type: functional
T4 sequence (Q96LD8 whole entry): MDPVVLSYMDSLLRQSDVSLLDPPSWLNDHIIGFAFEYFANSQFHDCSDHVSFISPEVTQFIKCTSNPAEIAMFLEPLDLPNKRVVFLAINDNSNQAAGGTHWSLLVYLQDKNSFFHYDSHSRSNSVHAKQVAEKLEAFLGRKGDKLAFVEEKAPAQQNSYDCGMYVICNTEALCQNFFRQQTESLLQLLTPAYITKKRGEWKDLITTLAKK

[6] = molecular target: T5, Methionyl-tRNA synthetase, putative (Trypanosoma brucei brucei, UniProt Q38C91); assay type: functional, Trypanosoma brucei brucei strain 927/4 GUTat10.1;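 note: Read-out by fluorescence polarization, run as a confirmatory high-throughput counterscreen; potency of MetRS inhibitors measured by reduced AMP formation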
T5 sequence (Q38C91 whole entry): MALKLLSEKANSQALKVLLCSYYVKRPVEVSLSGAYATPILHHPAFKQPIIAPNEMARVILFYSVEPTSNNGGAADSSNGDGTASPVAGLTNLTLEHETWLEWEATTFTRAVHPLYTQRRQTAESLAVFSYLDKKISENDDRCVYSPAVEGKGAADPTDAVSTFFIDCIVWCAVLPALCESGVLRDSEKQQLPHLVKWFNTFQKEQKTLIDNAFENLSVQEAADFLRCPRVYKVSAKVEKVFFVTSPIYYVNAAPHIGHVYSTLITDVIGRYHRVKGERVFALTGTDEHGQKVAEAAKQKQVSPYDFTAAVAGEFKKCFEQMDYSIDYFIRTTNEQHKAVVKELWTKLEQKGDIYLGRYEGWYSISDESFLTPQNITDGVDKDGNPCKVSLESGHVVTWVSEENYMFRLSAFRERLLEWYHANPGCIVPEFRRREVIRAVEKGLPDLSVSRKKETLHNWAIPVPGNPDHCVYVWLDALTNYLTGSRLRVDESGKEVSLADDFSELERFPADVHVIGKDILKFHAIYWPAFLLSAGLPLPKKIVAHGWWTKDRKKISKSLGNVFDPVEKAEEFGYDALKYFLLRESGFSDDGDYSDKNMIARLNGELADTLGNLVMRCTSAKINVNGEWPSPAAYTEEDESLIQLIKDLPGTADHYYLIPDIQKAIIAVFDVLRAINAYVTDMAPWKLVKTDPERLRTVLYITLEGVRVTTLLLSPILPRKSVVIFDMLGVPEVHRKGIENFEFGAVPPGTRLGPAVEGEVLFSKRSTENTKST

[7] = Counterscreen for inhibitors of Trypanosoma brucei methionyl tRNA synthetase (MetRS): Luminescence-based cell-based high throughput dose response assay to identify compounds that are cytotoxic to Jurkat human T lymphocyte cells.; assay type: functional
[8] = CRF-BP/CRF-R2 complex antagonists, dose response, cell-based, uHTS hits, 384-well (AID 651639); assay type: functional, Homo sapiens; details: read-out: IC50_Mean
[9] = molecular target: T6, Corticotropin-releasing factor receptor 2/Corticotropin-releasing factor-binding protein (Homo sapiens, UniProt P24387+Q13324); experiment: activators of CRF receptor 2 with binding protein – uHTS hits, confirmation (AID 602473); assay type: functional; details: read-out: EC50_Mean
T6 sequence (Q13324 whole entry): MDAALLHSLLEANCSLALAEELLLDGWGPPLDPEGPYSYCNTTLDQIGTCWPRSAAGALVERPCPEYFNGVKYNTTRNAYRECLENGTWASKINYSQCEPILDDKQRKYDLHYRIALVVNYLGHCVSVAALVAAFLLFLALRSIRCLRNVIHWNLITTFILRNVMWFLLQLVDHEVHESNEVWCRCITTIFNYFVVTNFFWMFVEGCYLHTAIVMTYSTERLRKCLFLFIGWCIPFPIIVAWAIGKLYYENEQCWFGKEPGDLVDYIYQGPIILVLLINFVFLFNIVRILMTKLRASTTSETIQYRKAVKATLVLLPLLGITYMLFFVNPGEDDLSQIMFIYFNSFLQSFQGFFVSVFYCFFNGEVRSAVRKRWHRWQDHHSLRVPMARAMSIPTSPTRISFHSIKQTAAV
T6 sequence (P24387 whole entry): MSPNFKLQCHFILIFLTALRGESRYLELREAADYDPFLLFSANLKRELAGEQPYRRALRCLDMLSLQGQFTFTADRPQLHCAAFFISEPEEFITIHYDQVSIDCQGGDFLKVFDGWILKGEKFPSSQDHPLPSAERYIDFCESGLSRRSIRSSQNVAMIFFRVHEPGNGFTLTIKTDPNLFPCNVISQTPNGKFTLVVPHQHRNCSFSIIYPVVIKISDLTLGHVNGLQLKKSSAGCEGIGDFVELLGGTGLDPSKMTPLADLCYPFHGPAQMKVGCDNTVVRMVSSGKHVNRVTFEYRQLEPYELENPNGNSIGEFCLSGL

[10] = molecular target: T6, Corticotropin-releasing factor receptor 2/Corticotropin-releasing factor-binding protein; experiment: Dose Response confirmation of uHTS hits for small molecule antagonists of the CRF-binding protein and CRF-R2 receptor complex.; assay type: functional; details: read-out: IC50_Mean
[11] = molecular target: Nuclear receptor subfamily 5 group A member 2 (Homo sapiens, UniProt O00482); assay type: functional, cell-based;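 note: HEK293T cells transfected with LRH-1 and a StAR promoter luciferase reporter; potency for inhibitors that lower LRH-1 driven reporter light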
Nuclear receptor subfamily 5 group A member 2, sequence (O00482 whole entry): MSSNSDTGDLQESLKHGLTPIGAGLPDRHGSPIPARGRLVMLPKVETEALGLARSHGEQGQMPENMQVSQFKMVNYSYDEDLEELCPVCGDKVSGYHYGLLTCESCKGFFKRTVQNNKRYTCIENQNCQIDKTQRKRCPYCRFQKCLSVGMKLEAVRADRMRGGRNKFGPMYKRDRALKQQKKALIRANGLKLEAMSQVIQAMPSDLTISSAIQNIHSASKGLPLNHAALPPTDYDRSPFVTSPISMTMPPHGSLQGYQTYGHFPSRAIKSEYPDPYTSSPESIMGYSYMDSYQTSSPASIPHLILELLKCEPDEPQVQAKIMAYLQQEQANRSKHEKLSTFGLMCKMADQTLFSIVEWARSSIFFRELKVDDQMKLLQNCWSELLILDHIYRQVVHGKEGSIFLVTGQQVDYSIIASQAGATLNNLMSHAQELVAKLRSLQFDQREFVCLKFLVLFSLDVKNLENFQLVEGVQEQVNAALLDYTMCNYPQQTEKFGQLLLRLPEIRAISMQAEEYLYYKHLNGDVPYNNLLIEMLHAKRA

Steroidogenic factor 1 = Steroidogenic factor 1 (Homo sapiens, UniProt Q13285); experiment: Counterscreen for inverse agonists of the liver receptor homolog-1 (LRH-1; NR5A2): Luminescence-based cell-based high throughput dose response assay to identify inverse agonists of the Steroidogenic Factor 1 Nuclear Receptor (SF1; NR5A1).; assay type: functional
Steroidogenic factor 1, sequence (Q13285 whole entry): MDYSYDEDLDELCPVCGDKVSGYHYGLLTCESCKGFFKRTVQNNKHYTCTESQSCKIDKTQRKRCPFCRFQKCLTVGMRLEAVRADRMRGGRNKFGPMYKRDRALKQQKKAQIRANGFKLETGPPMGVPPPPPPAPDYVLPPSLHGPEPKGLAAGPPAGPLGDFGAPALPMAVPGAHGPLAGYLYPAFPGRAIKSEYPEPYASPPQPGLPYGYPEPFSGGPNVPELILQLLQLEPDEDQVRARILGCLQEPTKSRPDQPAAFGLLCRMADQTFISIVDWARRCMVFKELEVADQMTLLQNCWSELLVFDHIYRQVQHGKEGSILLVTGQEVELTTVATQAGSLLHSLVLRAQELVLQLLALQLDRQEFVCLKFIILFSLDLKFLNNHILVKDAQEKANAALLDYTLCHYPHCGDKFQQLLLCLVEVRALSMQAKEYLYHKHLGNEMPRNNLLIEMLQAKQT

[12] = StAR promoter reporter inhibition counter-screen, dose response, counter-screen for LRH-1 inverse agonist project, cell-based, luminescence, luciferase reporter (AID 651969); assay type: functional
[13] = microbe, parasite or virus in culture; assay type: functional; details: Mycobacterium tuberculosis
[14] = molecular target: T7, Microphthalmia-associated transcription factor (Homo sapiens, UniProt O75030); experiment: TRPM1 promoter luciferase signal decrease, dose response, MITF inhibitor project, cell-based, SK-MEL-5, cherry-picked, set 3 (AID 493073); assay type: functional
T7 sequence (O75030 whole entry): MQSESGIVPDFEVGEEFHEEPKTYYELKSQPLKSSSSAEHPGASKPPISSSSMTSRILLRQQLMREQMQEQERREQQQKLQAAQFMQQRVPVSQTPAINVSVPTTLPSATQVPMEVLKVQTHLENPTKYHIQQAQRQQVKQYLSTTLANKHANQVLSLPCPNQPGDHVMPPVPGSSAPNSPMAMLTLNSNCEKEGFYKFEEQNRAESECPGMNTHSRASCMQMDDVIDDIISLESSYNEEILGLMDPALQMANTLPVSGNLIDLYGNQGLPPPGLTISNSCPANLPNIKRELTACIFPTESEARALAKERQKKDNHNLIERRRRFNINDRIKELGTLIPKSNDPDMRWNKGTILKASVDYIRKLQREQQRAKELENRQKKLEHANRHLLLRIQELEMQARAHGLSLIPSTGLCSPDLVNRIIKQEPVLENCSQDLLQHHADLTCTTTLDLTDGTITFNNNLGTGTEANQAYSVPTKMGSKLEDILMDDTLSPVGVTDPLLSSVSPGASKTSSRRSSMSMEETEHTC

[15] = A Cell Based Secondary Assay To Explore Cytotoxicity of Compounds that Sensitize Mycobacterium Tuberculosis to Beta-Lactam Antibiotics.; assay type: functional
[16] = AlphaScreen signal interference compounds, dose response, artefact control for ARNT-TACC3 interaction inhibitor project, biochemical, luminescence, cherry-pick (AID 651705); assay type: functional;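 note: AlphaScreen bead proximity signal that flags compounds interfering with the detection technology; potency reflects signal decrease which marks the compound as an assay artifact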
Nonstructural protein 1 = Nonstructural protein 1 (Influenza A virus, UniProt Q194T2); assay type: functional, Influenza A virus (A/California/07/2009(H1N1))
Nonstructural protein 1, sequence (Q194T2 whole entry): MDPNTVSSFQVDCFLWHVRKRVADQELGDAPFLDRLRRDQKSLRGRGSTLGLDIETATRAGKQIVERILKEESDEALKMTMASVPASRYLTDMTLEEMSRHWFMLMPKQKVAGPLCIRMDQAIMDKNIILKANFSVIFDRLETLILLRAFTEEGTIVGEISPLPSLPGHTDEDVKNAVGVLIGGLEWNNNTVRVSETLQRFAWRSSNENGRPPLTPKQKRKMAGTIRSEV

Adenosylmethionine-8-amino-7-oxononanoate aminotransferase, sequence (P9WQ81 whole entry): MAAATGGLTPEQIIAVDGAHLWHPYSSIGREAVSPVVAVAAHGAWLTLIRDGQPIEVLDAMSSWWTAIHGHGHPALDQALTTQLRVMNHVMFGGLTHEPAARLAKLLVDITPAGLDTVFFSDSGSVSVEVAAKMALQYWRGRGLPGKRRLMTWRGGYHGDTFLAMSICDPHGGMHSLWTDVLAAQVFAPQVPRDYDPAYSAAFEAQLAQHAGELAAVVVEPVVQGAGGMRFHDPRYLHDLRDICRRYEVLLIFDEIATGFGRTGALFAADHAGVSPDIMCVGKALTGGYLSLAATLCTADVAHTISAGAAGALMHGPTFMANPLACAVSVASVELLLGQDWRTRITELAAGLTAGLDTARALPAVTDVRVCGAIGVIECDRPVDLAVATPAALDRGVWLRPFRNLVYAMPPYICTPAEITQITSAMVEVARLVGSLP

With `O=C(Nc1ccc2snnc2c1)N1CCOCC1` the AC50 [1] was 8.02 µM (active).
With `c1nc(NCc2ccc3c(c2)OCO3)c2cc(-c3ccoc3)ccc2n1` the IC50 (Interleukin-8 [2]) was > 79 µM (inactive), the IC50 (Interleukin-8 [3]) was 1.66 µM (active) and the AC50 (HEK293) was 2.17 µM (active).
In the case of `COc1ccc(C(=O)Nc2ccc3ccccc3c2)cc1OC`, the IC50 (Caspase-3) is reported as 14.9 µM (active), the IC50 [4] is reported as > 99 µM (inactive) and the IC50 [5] is reported as > 99 µM (inactive).
For `Cc1cc(Br)cc(Br)c1OCC(=O)NNC(=O)Nc1ccccc1`, the IC50 [6] was 119 µM (inactive) and the IC50 [7] was 83.3 µM (inactive).
For `Fc1ccc2[nH]c3c(NCCN4CCOCC4)ncnc3c2c1`, the AC50 [1] was 14.9 µM (active).
With `Cc1ccc([C@H]2C(C(=O)O)=CC[C@@H](c3ccc(Cl)cc3)N2S(=O)(=O)c2ccc(C)cc2)cc1` the IC50 [8] was > 20 µM (inactive), the EC50 [9] was 25.4 µM (active) and the IC50 [10] was 19.8 µM (active).
In the case of `O=C(NC1CCCC(C(F)(F)F)C1)c1ccc([N+](=O)[O-])o1` (stereo not drawn), the IC50 [11] is reported as 23.5 µM (inactive), the IC50 (Steroidogenic factor 1) is reported as 0.772 µM (active) and the IC50 [12] is reported as 35.9 µM (inactive). The CC50 [13] was 8.8 µM (active) and the AC50 [14] was 11.2 µM (active).
With `O=C(Nc1nnc(-c2ccco2)o1)c1ccc(S(=O)(=O)N2CCOCC2)cc1` the CC50 [15] was > 40 µM (active) and the AC50 [16] was 117 µM (active).
In the case of `COC(=O)c1ccc(N2CCCCC2)c(NC(=O)c2ccco2)c1`, the IC50 [11] is reported as 6.04 µM (active), the IC50 (Steroidogenic factor 1) is reported as 3.89 µM (active) and the IC50 [12] is reported as 18.7 µM (inactive).
For `O=C(CSc1ccc2nnc(-c3ccccn3)n2n1)Nc1nccs1`, the IC50 (Nonstructural protein 1) was 43.5 µM (active) and the AC50 [16] was 76.4 µM (active).
For `CC1=NN(C(=O)c2ccc(Br)cc2)C(O)(C(F)(F)OC(F)(F)F)C1` (stereo not drawn), the IC50 [8] was > 20 µM (inactive), the EC50 [9] was 46 µM (active) and the IC50 [10] was 4.84 µM (active).
